Assay results reported in PubChem BioAssay AID1918943 (Molecular Pharmacology Branch, DTP, NCI, 2023).

Test system: 855422-203-R-J1-PDC complex spheroid viability
Assay: Anticancer human tumor 855422-203-R-J1-PDC patient-derived bladder carcinoma cell line growth inhibition
Settings: for IC50: curve of first compound; for viability, T/C: stronger effect = lower value
Method in brief: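 Multicellular complex spheroids of tumor cells with human endothelial cells (HUVEC) and mesenchymal stem cells; the LSD1 inhibitor iadademstat was combined with standard-of-care or investigational agents. Top concentration at or near clinical Cmax, half-log dilutions; final DMSO ≤0.25%.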

[1] = second compound 0.1 µM, first compound 0.000949 µM
[2] = second compound 0.1 µM, first compound 0.003 µM
[3] = second compound 0.1 µM, first compound 0.00949 µM
[4] = second compound 0.1 µM, first compound 0.03 µM
[5] = second compound 0.1 µM, first compound 0.0949 µM
[6] = second compound 0.1 µM, first compound 0.3 µM
[7] = second compound 0.316 µM, first compound 0.000949 µM
[8] = second compound 0.316 µM, first compound 0.003 µM
[9] = second compound 0.316 µM, first compound 0.00949 µM
[10] = second compound 0.316 µM, first compound 0.03 µM
[11] = second compound 0.316 µM, first compound 0.0949 µM
[12] = second compound 0.316 µM, first compound 0.3 µM
[13] = second compound 1 µM, first compound 0.000949 µM
[14] = second compound 1 µM, first compound 0.003 µM
[15] = second compound 1 µM, first compound 0.00949 µM
[16] = second compound 1 µM, first compound 0.03 µM
[17] = second compound 1 µM, first compound 0.0949 µM
[18] = second compound 1 µM, first compound 0.3 µM
[19] = second compound 3.16 µM, first compound 0.000949 µM
[20] = second compound 3.16 µM, first compound 0.003 µM
[21] = second compound 3.16 µM, first compound 0.00949 µM
[22] = second compound 3.16 µM, first compound 0.03 µM
[23] = second compound 3.16 µM, first compound 0.0949 µM
[24] = second compound 3.16 µM, first compound 0.3 µM
[25] = second compound 10 µM, first compound 0.000949 µM
[26] = second compound 10 µM, first compound 0.003 µM
[27] = second compound 10 µM, first compound 0.00949 µM
[28] = second compound 10 µM, first compound 0.03 µM
[29] = second compound 10 µM, first compound 0.0949 µM
[30] = second compound 10 µM, first compound 0.3 µM
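Note: drug exposure lasted 7 days starting on day 3 after seeding.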
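Throughout, for viability, T/C: luminescence viability as percent of DMSO vehicle wells = 100%.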

## CC[C@@]1(O)C(=O)OCc2c1cc1n(c2=O)Cc2cc3c(CN(C)C)c(O)ccc3nc2-1 + NC1CCC(NC2CC2c2ccccc2)CC1
Second compound 0.1 µM
  IC50: 7.48 nM
Second compound 0.316 µM
  IC50: 6.91 nM
Second compound 1 µM
  IC50: 7.51 nM
Second compound 3.16 µM
  IC50: 6.75 nM
Second compound 10 µM
  IC50: 6.22 nM
Second compound 0.1 µM, first compound 0.000316 µM
  viability, T/C: 89.9%
Second compound 0.1 µM, first compound 0.001 µM
  viability, T/C: 93.6%
Second compound 0.1 µM, first compound 0.00316 µM
  viability, T/C: 82.5%
Second compound 0.1 µM, first compound 0.01 µM
  viability, T/C: 38.8%
Second compound 0.1 µM, first compound 0.0316 µM
  viability, T/C: 27.5%
Second compound 0.1 µM, first compound 0.1 µM
  viability, T/C: 22.9%
Second compound 0.316 µM, first compound 0.000316 µM
  viability, T/C: 90.9%
Second compound 0.316 µM, first compound 0.001 µM
  viability, T/C: 83.9%
Second compound 0.316 µM, first compound 0.00316 µM
  viability, T/C: 77.7%
Second compound 0.316 µM, first compound 0.01 µM
  viability, T/C: 36.8%
Second compound 0.316 µM, first compound 0.0316 µM
  viability, T/C: 24.9%
Second compound 0.316 µM, first compound 0.1 µM
  viability, T/C: 21.2%
Second compound 1 µM, first compound 0.000316 µM
  viability, T/C: 89.1%
Second compound 1 µM, first compound 0.001 µM
  viability, T/C: 80%
Second compound 1 µM, first compound 0.00316 µM
  viability, T/C: 78.5%
Second compound 1 µM, first compound 0.01 µM
  viability, T/C: 39.9%
Second compound 1 µM, first compound 0.0316 µM
  viability, T/C: 32.6%
Second compound 1 µM, first compound 0.1 µM
  viability, T/C: 21.4%
Second compound 3.16 µM, first compound 0.000316 µM
  viability, T/C: 77.4%
Second compound 3.16 µM, first compound 0.001 µM
  viability, T/C: 83.5%
Second compound 3.16 µM, first compound 0.00316 µM
  viability, T/C: 74.5%
Second compound 3.16 µM, first compound 0.01 µM
  viability, T/C: 37.1%
Second compound 3.16 µM, first compound 0.0316 µM
  viability, T/C: 25.5%
Second compound 3.16 µM, first compound 0.1 µM
  viability, T/C: 21.1%
Second compound 10 µM, first compound 0.000316 µM
  viability, T/C: 79.3%
Second compound 10 µM, first compound 0.001 µM
  viability, T/C: 79.2%
Second compound 10 µM, first compound 0.00316 µM
  viability, T/C: 66%
Second compound 10 µM, first compound 0.01 µM
  viability, T/C: 37.2%
Second compound 10 µM, first compound 0.0316 µM
  viability, T/C: 26.9%
Second compound 10 µM, first compound 0.1 µM
  viability, T/C: 15.9%

## CCc1c2c(nc3ccc(O)cc13)-c1cc3c(c(=O)n1C2)COC(=O)[C@]3(O)CC + NC1CCC(NC2CC2c2ccccc2)CC1
Second compound 0.1 µM
  IC50: < 0.949 nM
Second compound 0.316 µM
  IC50: < 0.949 nM
Second compound 1 µM
  IC50: < 0.949 nM
Second compound 3.16 µM
  IC50: < 0.949 nM
Second compound 10 µM
  IC50: < 0.949 nM
[1]
  viability, T/C: 21.1%
[2]
  viability, T/C: 16%
[3]
  viability, T/C: 11.9%
[4]
  viability, T/C: 9.64%
[5]
  viability, T/C: 6.14%
[6]
  viability, T/C: 2.74%
[7]
  viability, T/C: 22.6%
[8]
  viability, T/C: 19.5%
[9]
  viability, T/C: 12.3%
[10]
  viability, T/C: 9.27%
[11]
  viability, T/C: 5.32%
[12]
  viability, T/C: 5.13%
[13]
  viability, T/C: 23.6%
[14]
  viability, T/C: 17.3%
[15]
  viability, T/C: 13.2%
[16]
  viability, T/C: 8.94%
[17]
  viability, T/C: 7.12%
[18]
  viability, T/C: 2.09%
[19]
  viability, T/C: 22.1%
[20]
  viability, T/C: 15.5%
[21]
  viability, T/C: 11.4%
[22]
  viability, T/C: 9.39%
[23]
  viability, T/C: 4.78%
[24]
  viability, T/C: 2.98%
[25]
  viability, T/C: 20.7%
[26]
  viability, T/C: 12.2%
[27]
  viability, T/C: 8.28%
[28]
  viability, T/C: 8.25%
[29]
  viability, T/C: 4.8%
[30]
  viability, T/C: 1.43%

## COc1cc(C2c3cc4c(cc3C(OC3OC5COC(C)OC5C(O)C3O)C3COC(=O)C23)OCO4)cc(OC)c1O (stereo not given) + NC1CCC(NC2CC2c2ccccc2)CC1
Second compound 0.1 µM
  IC50: 153 nM
Second compound 0.316 µM
  IC50: 142 nM
Second compound 1 µM
  IC50: 137 nM
Second compound 3.16 µM
  IC50: 128 nM
Second compound 10 µM
  IC50: 130 nM
[3]
  viability, T/C: 89.8%
[4]
  viability, T/C: 87.1%
[5]
  viability, T/C: 57.6%
[6]
  viability, T/C: 35.6%
Second compound 0.1 µM, first compound 0.949 µM
  viability, T/C: 18.5%
Second compound 0.1 µM, first compound 3 µM
  viability, T/C: 9.63%
[9]
  viability, T/C: 92%
[10]
  viability, T/C: 86.4%
[11]
  viability, T/C: 55.4%
[12]
  viability, T/C: 34.6%
Second compound 0.316 µM, first compound 0.949 µM
  viability, T/C: 19.5%
Second compound 0.316 µM, first compound 3 µM
  viability, T/C: 10.1%
[15]
  viability, T/C: 85.2%
[16]
  viability, T/C: 81.9%
[17]
  viability, T/C: 56.9%
[18]
  viability, T/C: 31.7%
Second compound 1 µM, first compound 0.949 µM
  viability, T/C: 16.4%
Second compound 1 µM, first compound 3 µM
  viability, T/C: 8.66%
[21]
  viability, T/C: 85%
[22]
  viability, T/C: 84.9%
[23]
  viability, T/C: 53.6%
[24]
  viability, T/C: 30.5%
Second compound 3.16 µM, first compound 0.949 µM
  viability, T/C: 17%
Second compound 3.16 µM, first compound 3 µM
  viability, T/C: 8.59%
[27]
  viability, T/C: 78.4%
[28]
  viability, T/C: 79.7%
[29]
  viability, T/C: 57.7%
[30]
  viability, T/C: 26.8%
Second compound 10 µM, first compound 0.949 µM
  viability, T/C: 15.8%
Second compound 10 µM, first compound 3 µM
  viability, T/C: 8.09%

## Nc1ccn(C2OC(CO)C(O)C2(F)F)c(=O)n1 (stereo not given) + NC1CCC(NC2CC2c2ccccc2)CC1
Second compound 0.1 µM
  IC50: 4.38 nM
Second compound 0.316 µM
  IC50: 5.79 nM
Second compound 1 µM
  IC50: 6.14 nM
Second compound 3.16 µM
  IC50: 6.83 nM
Second compound 10 µM
  IC50: 8.48 nM
[1]
  viability, T/C: 90.5%
[2]
  viability, T/C: 53.3%
[3]
  viability, T/C: 39.5%
[4]
  viability, T/C: 34.7%
[5]
  viability, T/C: 28.7%
[6]
  viability, T/C: 24.4%
[7]
  viability, T/C: 86.6%
[8]
  viability, T/C: 58.9%
[9]
  viability, T/C: 41.3%
[10]
  viability, T/C: 34.8%
[11]
  viability, T/C: 30%
[12]
  viability, T/C: 20.6%
[13]
  viability, T/C: 88.5%
[14]
  viability, T/C: 57.2%
[15]
  viability, T/C: 45.4%
[16]
  viability, T/C: 37.9%
[17]
  viability, T/C: 32.5%
[18]
  viability, T/C: 28.6%
[19]
  viability, T/C: 79.2%
[20]
  viability, T/C: 63.1%
[21]
  viability, T/C: 43.5%
[22]
  viability, T/C: 35.1%
[23]
  viability, T/C: 26.8%
[24]
  viability, T/C: 24.7%
[25]
  viability, T/C: 82.1%
[26]
  viability, T/C: 55.9%
[27]
  viability, T/C: 52%
[28]
  viability, T/C: 39.9%
[29]
  viability, T/C: 27.6%
[30]
  viability, T/C: 22.3%
